Reference: PubChem BioAssay (NCI)
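Exposure lasted 48 hours, with cells grown in 96-well plates and compounds tested at five concentrations. The concentration for full growth arrest is given as TGI.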

Columns and labels:
Assay in all cases: growth of human tumour cells (NCI), 48 h
[1] = system: 786-0 renal
[2] = system: A498 renal
[3] = system: A549 NSCLC
[4] = system: ACHN renal
[5] = system: BT-549 breast
[6] = system: CAKI-1 renal
[7] = system: CCRF-CEM leukemia
[8] = system: COLO 205 colon
[9] = system: DU-145 prostate
[10] = system: EKVX NSCLC
[11] = system: HCC-2998 colon
[12] = system: HCT-116 colon
[13] = system: HCT-15 colon
[14] = system: HOP-62 NSCLC
[15] = system: HT29 colon
[16] = system: IGROV1 ovarian
[17] = system: K-562 leukemia
[18] = system: KM12 colon
[19] = system: LOX IMVI melanoma
[20] = system: M14 melanoma
[21] = system: MALME-3M melanoma
[22] = system: MCF7 breast
[23] = system: MDA-MB-231 breast
[24] = system: MDA-MB-435
[25] = system: MDA-N
[26] = system: MOLT-4 leukemia
[27] = system: NCI-H226 lung
[28] = system: NCI-H23 lung
[29] = system: NCI-H460 lung
[30] = system: NCI-H522 lung
[31] = system: NCI/ADR-RES ovarian
[32] = system: OVCAR-4 ovarian
[33] = system: OVCAR-5 ovarian
[34] = system: OVCAR-8 ovarian
[35] = system: PC-3 prostate
[36] = system: RPMI-8226 leukemia
[37] = system: RXF 393 renal
[38] = system: SF-268 CNS
[39] = system: SF-295 CNS
[40] = system: SF-539 CNS
[41] = system: SK-MEL-2 melanoma
[42] = system: SK-MEL-28 melanoma
[43] = system: SK-MEL-5 melanoma
[44] = system: SK-OV-3 ovarian
[45] = system: SN12C renal
[46] = system: SNB-19 CNS
[47] = system: SNB-75 CNS
[48] = system: SR leukemia
[49] = system: SW-620 colon
[50] = system: T-47D breast
[51] = system: TK-10 renal
[52] = system: U251 CNS
[53] = system: UACC-257 melanoma
[54] = system: UACC-62 melanoma
[55] = system: UO-31 renal
[56] = system: HL-60(TB) leukemia
[57] = system: HOP-92 NSCLC
[58] = system: OVCAR-3 ovarian
[59] = system: HS 578T breast

Measured: TGI

N#Cc1c(-c2ccc(Cl)cc2)cc(-c2ccc(Nc3ccnc4cc(C(F)(F)F)ccc34)cc2)nc1N
62.4 µM: [41]
36.8 µM: [4]
64.5 µM: [37]
37.8 µM: [54]
81.4 µM: [51]
51.1 µM: [27]
46.2 µM: [47]
30.6 µM: [46]
38.8 µM: [39]
31.5 µM: [15]
38 µM: [52]
48.2 µM: [42]
38.4 µM: [1] | [13]
71.2 µM: [23]
16.4 µM: [48]
42 µM: [32]
34.3 µM: [55]
59 µM: [45]
43.2 µM: [50]
75.9 µM: [30]
49.6 µM: [20]
37.5 µM: [26]
56.5 µM: [7]
42.9 µM: [14]
42.7 µM: [24]
46.9 µM: [17]
22.4 µM: [12]
33.2 µM: [40]
88.2 µM: [33]
33.8 µM: [2]
not listed: [56] | [57] | [58] | [59]
> 100 µM: all other assays above

CCCCCC(/C=C/C1CCC(=O)C1)OCOCCOC (configuration not stated)
> 92.2 µM: [7]
58.5 µM: [55]
> 71 µM: [5] | [19]
> 81.8 µM: [48] | [49]
> 73.6 µM: [12]
84.5 µM: [57]
99.2 µM: [31]
44.5 µM: [26]
36 µM: [30]
> 95.4 µM: [34]
57.8 µM: [47]
67.5 µM: [15]
> 86.7 µM: [17]
99.3 µM: [2]
> 71.7 µM: [38]
60.3 µM: [36]
42.5 µM: [1]
46.3 µM: [40]
> 66.7 µM: [53]
> 76.9 µM: [6]
58.6 µM: [4]
not listed: [59]
> 100 µM: all other assays above

CC1CC2=C(C1)C(C1(C)C(=O)CC3C(C1=O)C3(C)C)C(C)C2=O (configuration not stated)
not listed: [31]
> 100 µM: all other assays above

C=C1C[C@@H](O)[C@@H](Br)C(C)(C)[C@@]12C=CC(O)(CBr)CC2 (some centres not stated)
83.7 µM: [5]
79.2 µM: [10]
9.72 µM: [35]
76.2 µM: [26]
93.5 µM: [23]
61 µM: [57]
77.6 µM: [48]
15.1 µM: [18]
64.2 µM: [7]
70.7 µM: [36]
not listed: [2] | [8] | [11] | [31] | [40] | [44] | [47]
> 100 µM: all other assays above

CC(NC(=O)C(Cc1ccc(OC(=O)c2ccccc2)cc1)NC(=O)OC(C)(C)C)C(=O)NCC(=O)NC(Cc1ccccc1)NC(=O)OCc1ccccc1 (configuration not stated)
not listed: [7] | [11] | [31] | [41] | [53]
> 100 µM: all other assays above
